# Assay results from patent publication US10722484B2, “Methods of cancer treatment” (K-Gen, Inc., priority 2016, dated 2020).
# Where two headings read alike, the source gives them in different places.
# Columns and labels:
# [1] = test system: leukemia inhibitory factor (LIF); experiment: Western blot analysis of PKC signaling pathway elements in A549 cells; format: cell-based; settings: Western blot, concentrations of Table 8 (K101A 0.1, 0.5, […]; K101E […]; K102 0.1, 0.5 μM; K103 0.01 μM; Ref1 1 μM; Ref2 0.01 μM)
# Protocol: Cancer cells (2-8 million cells) were seeded in 10 cm dishes and grown overnight. For A549 lung cancer cell line, about 3 million cells were seeded. Cells were then treated with different drugs at concentrations described in Table 8 for a period of time up to 48 hours. Cells were lysed in 0.3-0.5 mL of RIPA buffer (Sigma) supplemented with protease inhibitors (Roche) and phosphatase inhibitors (Sigma). Lysates were assayed for protein concentration using BCA kit (Pierce). Normalized amount of lysates (20-30 μg protein/lane) were run on 4-12% NuPage gel (Life Technologies) and the proteins were transferred to the PVDF or nitrocellulose membrane using iBlot® Transfer Stack (Life Technologies). The membranes were probed with primary antibodies shown in Table 9 at 4° C. overnight after blocking with 1×TBST containing 5% non-fat milk. Antibodies from other vendors could also be used in Western blot analysis. After washing 5 times with 1×TBS containing 0.1% Tween20, the membranes were probed with 2nd antibodies Anti-mouse IgG Dylight 800 conjugate or Anti-rabbit IgG DyLight 680 conjugate (1:10000; Cell signaling or similar IR 2nd antibodies from different vendors) at room temperature for one hour. After washing 5 times, the membranes were scanned using Odyssey® Imaging System (Licor Biosciences).
# MiaPaCa-2 = experiment: Proliferation assay (CellTiter Glo); format: cell-based; settings: 96 hours
# HL60 = experiment: Proliferation assay (CellTiter Glo); format: cell-based, human; settings: 96 hours
# Protocol: (§1) The dose range for most compounds was 4.6 nM-30 μM. The dose ranges for some compounds were adjusted downward to 0.46 nM-3 μM or 0.08 nM-0.5 μM or 0.03 nM-0.2 μM. […] The results are shown in Tables 3-6 for pancreatic cancer, lung cancer, colon/gastric cancer, and leukemia.
# THP1 = experiment: Proliferation assay (CellTiter Glo); format: cell-based, human; settings: 96 hours
# Protocol: as §1
# SW620 = experiment: Proliferation assay (CellTiter Glo); format: cell-based; settings: 96 hours
# Protocol: as §1
# AGS = experiment: Proliferation assay (CellTiter Glo); format: cell-based; settings: 96 hours
# Protocol: as §1
# HCT116 = experiment: Proliferation assay (CellTiter Glo); format: cell-based; settings: 96 hours
# Protocol: as §1
# H727 = experiment: Proliferation assay (CellTiter Glo); format: cell-based; settings: 96 hours
# Protocol: as §1
# LS180 = experiment: Proliferation assay (CellTiter Glo); format: cell-based; settings: 96 hours
# Protocol: as §1
# H441 = experiment: Proliferation assay (CellTiter Glo); format: cell-based; settings: 96 hours
# Protocol: as §1
# H358 = experiment: Proliferation assay (CellTiter Glo); format: cell-based; settings: HE58, 96 hours
# Protocol: as §1
# A549 = experiment: Proliferation assay (CellTiter Glo); format: cell-based; settings: 96 hours
# Protocol: as §1
# Pan2.13 = experiment: Proliferation assay (CellTiter Glo); format: cell-based; settings: 96 hours
# Protocol: as §1
# KP-4 = experiment: Proliferation assay (CellTiter Glo); format: cell-based; settings: 96 hours
# Protocol: as §1
# CCRF-CEM = experiment: Proliferation assay (CellTiter Glo); format: cell-based; settings: 96 hours
# Protocol: as §1
# AsPC-1 = experiment: Proliferation assay (CellTiter Glo); format: cell-based; settings: 96 hours
# Protocol: as §1
# Pan2.03 = experiment: Proliferation assay (CellTiter Glo); format: cell-based; settings: 96 hours
# Protocol: as §1
# Capan-1 = experiment: Proliferation assay (CellTiter Glo); format: cell-based; settings: 96 hours
# Protocol: as §1
compound,measurement,setting,value
CC(=O)OCC1=CC2C3C(C)(C)C3(OC(C)=O)CC(C)C2(O)C2C=C(C)C(=O)C2(O)C1 (centres unmarked) [Compound K101E],protein levels of the leukemia inhibitory factor (LIF),[1],did not affect
same,EC50,"MiaPaCa-2; MiaPaCa-2 (K-RAS: G12C), absolute EC50, read-out: Ab EC50",1880 nM
same,Top Inhibition %,"MiaPaCa-2; MiaPaCa-2, % of top inhibition",61.4%
same,EC50,"MiaPaCa-2; MiaPaCa-2, relative EC50, read-out: Re EC50",860 nM
same,EC50,"HL60; HL60 (N-RAS: Q61L), absolute EC50, read-out: Ab EC50",3050 nM
same,Top Inhibition %,"HL60; HL60, % of top inhibition",63.4%
same,EC50,"HL60; HL60, relative EC50, read-out: Re EC50",1920 nM
same,EC50,"THP1; THP1 (N-RAS: G12D), absolute EC50, read-out: Ab EC50",3600 nM
same,Top Inhibition %,"THP1; THP1, % of top inhibition",51.6%
same,EC50,"THP1; THP1, relative EC50, read-out: Re EC50",1020 nM
same,EC50,"SW620; SW620 (K-RAS: G12V), absolute EC50, read-out: Ab EC50",> 30000 nM
same,Top Inhibition %,"SW620; SW620, % of top inhibition",0.0%
same,EC50,"AGS; AGS (gastric, K-RAS: G12D), absolute EC50, read-out: Ab EC50",> 30000 nM
same,Top Inhibition %,"AGS; AGS, % of top inhibition",25.9%
same,EC50,"AGS; AGS, relative EC50, read-out: Re EC50",4380 nM
same,EC50,"HCT116; HCT116 (K-RAS: G13D), absolute EC50, read-out: Ab EC50",> 30000 nM
same,Top Inhibition %,"HCT116; HCT116, % of top inhibition",27.4%
same,EC50,"HCT116; HCT116, relative EC50, read-out: Re EC50",6640 nM
same,EC50,"H727; H727 (K-RAS: G12V), absolute EC50, read-out: Ab EC50",> 30000 nM
same,Top Inhibition %,"H727; H727, % of top inhibition",49.1%
same,EC50,"H727; H727, relative EC50, read-out: Re EC50",620 nM
same,EC50,"LS180; LS180 (K-RAS: G12D), absolute EC50, read-out: Ab EC50",> 30000 nM
same,Top Inhibition %,"LS180; LS180, % of top inhibition",1.3%
same,EC50,"H441; H441 (K-RAS: G12V), absolute EC50, read-out: Ab EC50",> 30000 nM
same,Top Inhibition %,"H441; H441, % of top inhibition",49.1%
same,EC50,"H441; H441, relative EC50, read-out: Re EC50",2610 nM
same,Top Inhibition %,H358; % of top inhibition,47.9%
same,EC50,"H358; absolute EC50, read-out: Ab EC50",> 30000 nM
same,EC50,"H358; relative EC50, read-out: Re EC50",1250 nM
same,EC50,"A549; A549 (K-RAS: G12S), absolute EC50, read-out: Ab EC50",2640 nM
same,Top Inhibition %,"A549; A549, % of top inhibition",78.7%
same,EC50,"A549; A549, relative EC50, read-out: Re EC50",1560 nM
same,EC50,"Pan2.13; Pan2.13 (K-RAS: Q61H), absolute EC50, read-out: Ab EC50",> 200 nM
same,Top Inhibition %,"Pan2.13; Pan2.13, % of top inhibition",49.8%
same,EC50,"Pan2.13; Pan2.13, relative EC50, read-out: Re EC50",44 nM
same,EC50,"KP-4; KP-4 (K-RAS: G12C), absolute EC50, read-out: Ab EC50",1280 nM
same,Top Inhibition %,"KP-4; KP-4, % of top inhibition",69.1%
same,EC50,"KP-4; KP-4, relative EC50, read-out: Re EC50",680 nM
same,EC50,"CCRF-CEM; CCRF-CEM (K-RAS: G12D), absolute EC50, read-out: Ab EC50",> 30000 nM
same,Top Inhibition %,"CCRF-CEM; CCRF-CEM, % of top inhibition",34.3%
same,EC50,"CCRF-CEM; CCRF-CEM, relative EC50, read-out: Re EC50",270 nM
same,EC50,"AsPC-1; AsPC-1 (K-RAS: G12D), absolute EC50, read-out: Ab EC50",> 30000 nM
same,Top Inhibition %,"AsPC-1; AsPC-1, % of top inhibition",35.2%
same,EC50,"AsPC-1; AsPC-1, relative EC50, read-out: Re EC50",2780 nM
same,EC50,"Pan2.03; Pan2.03 (K-RAS: G12D), absolute EC50, read-out: Ab EC50",> 30000 nM
same,Top Inhibition %,"Pan2.03; Pan2.03, % of top inhibition",36.5%
same,EC50,"Pan2.03; Pan2.03, relative EC50, read-out: Re EC50",1920 nM
same,EC50,"Capan-1; Capan-1 (K-RAS: G12V), absolute EC50, read-out: Ab EC50",> 30000 nM
same,Top Inhibition %,"Capan-1; Capan-1, % of top inhibition",44.6%
same,EC50,"Capan-1; Capan-1, relative EC50, read-out: Re EC50",830 nM
